Source: ChEMBL document CHEMBL1143733, “Synthesis and structure-antituberculosis activity relationship of 1H-indole-2,3-dione derivatives” (Bioorg Med Chem, 2007)
Values after ≈ are worked out from the molar mass of the structure shown.

What was measured:
[1] = tested on: Mycobacterium tuberculosis; test: Growth inhibition of Mycobacterium tuberculosis H37Rv at 6.25 ug/mL by microplate alamar blue assay; format: functional; conditions: read-out: GI
[2] = tested on: Mycobacterium tuberculosis; test: Antituberculosis activity against Mycobacterium tuberculosis H37Rv by microplate alamar blue assay; format: functional
Vero = test: Cytotoxicity against Vero cells; format: cell-based; conditions: Chlorocebus sabaeus

Compound	inhibition of growth at 6.25 µg/mL [1] [%]	MIC [2] [µg/mL]	IC50 (Vero) [µg/mL]
O=C1Nc2ccc([N+](=O)[O-])cc2/C1=N/NC(=S)Nc1ccc(F)cc1	24		
CNC(=S)N/N=C1\C(=O)N(CN2CCCCC2)c2ccc(F)cc21	20		
C=CCNC(=S)N/N=C1\C(=O)N(CN2CCOCC2)c2ccc(F)cc21	24		
C=CCNC(=S)N/N=C1\C(=O)N(CN2CCCCC2)c2ccc(F)cc21	20		
C=CCNC(=S)N/N=C1\C(=O)N(CN2CCCCC2)c2ccc([N+](=O)[O-])cc21	22		
CCN1C(=O)CS/C1=N/N=C1\C(=O)Nc2ccc([N+](=O)[O-])cc21	0		
CCCCNC(=S)N/N=C1\C(=O)N(CN2CCOCC2)c2ccc([N+](=O)[O-])cc21	30		
O=C1/C(=N\NC(=S)NC2CCCCC2)c2cc([N+](=O)[O-])ccc2N1CN1CCOCC1	90	6.25 (≈ 14 µM)	
O=C1/C(=N\NC(=S)Nc2ccccc2)c2cc([N+](=O)[O-])ccc2N1CN1CCOCC1	93	> 6.25	2.8 (≈ 6.36 µM)
O=C1/C(=N\NC(=S)NC2CCCCC2)c2cc(F)ccc2N1CN1CCOCC1	33		
O=C1/C(=N\NC(=S)NCc2ccccc2)c2cc(F)ccc2N1CN1CCOCC1	0		
Cc1ccc(NC(=S)N/N=C2\C(=O)N(CN3CCCCC3)c3ccc(F)cc32)cc1	51		
O=C1/C(=N\NC(=S)Nc2ccc(Cl)cc2)c2cc(F)ccc2N1CN1CCOCC1	58		
O=C1/C(=N\NC(=S)Nc2ccc(Cl)cc2)c2cc(F)ccc2N1CN1CCCCC1	63		
O=C1/C(=N\NC(=S)Nc2ccccc2)c2cc([N+](=O)[O-])ccc2N1CN1CCCCC1	31		
Cc1ccc(NC(=S)N/N=C2\C(=O)N(CN3CCOCC3)c3ccc([N+](=O)[O-])cc32)cc1	92	> 6.25	17 (≈ 37.4 µM)
O=C1/C(=N\NC(=S)Nc2ccc(Cl)cc2)c2cc([N+](=O)[O-])ccc2N1CN1CCOCC1	65		
O=C1/C(=N\NC(=S)Nc2ccc(F)cc2)c2cc(F)ccc2N1CN1CCCCC1	38		
O=C1/C(=N\NC(=S)Nc2ccc(Cl)cc2)c2cc([N+](=O)[O-])ccc2N1CN1CCCCC1	54		
C=CCN1C(=O)CS/C1=N/N=C1\C(=O)Nc2ccc([N+](=O)[O-])cc21	2		
O=C1Nc2ccc([N+](=O)[O-])cc2/C1=N/N=C1/SCC(=O)N1c1ccccc1	0		
Cc1ccc(N2C(=O)CS/C2=N/N=C2\C(=O)Nc3ccc([N+](=O)[O-])cc32)cc1	17		
O=C1Nc2ccc([N+](=O)[O-])cc2/C1=N/N=C1/SCC(=O)N1c1ccc(Cl)cc1	0		

Compound	inhibition of growth at 6.25 µg/mL [1] [%]	MIC [2] [µg/mL]	IC50 (Vero) [µg/mL]
C=CCN1C(=O)C(C)S/C1=N/N=C1\C(=O)Nc2ccc([N+](=O)[O-])cc21 (configuration not stated)	3		
CCCCN1C(=O)C(C)S/C1=N/N=C1\C(=O)Nc2ccc([N+](=O)[O-])cc21 (configuration not stated)	10		
CC1S/C(=N/N=C2\C(=O)Nc3ccc([N+](=O)[O-])cc32)N(c2ccccc2)C1=O (configuration not stated)	9		
CC1S/C(=N/N=C2\C(=O)Nc3ccc([N+](=O)[O-])cc32)N(c2ccc(Br)cc2)C1=O (configuration not stated)	3		
O=C1Nc2ccc([N+](=O)[O-])cc2/C1=N/NC(=S)NC1CCCCC1	90	> 6.25	4.74 (≈ 13.6 µM)
Cc1ccc(NC(=S)N/N=C2\C(=O)Nc3ccc([N+](=O)[O-])cc32)cc1	93	6.25 (≈ 17.6 µM)	2.45 (≈ 6.89 µM)
O=C1Nc2ccc([N+](=O)[O-])cc2/C1=N/NC(=S)Nc1ccc(Br)cc1	90	> 6.25	2.59 (≈ 6.16 µM)
O=C1Nc2ccc(F)cc2/C1=N/NC(=S)Nc1ccc(Cl)cc1	37		
O=C1Nc2ccc(F)cc2/C1=N/NC(=S)Nc1ccc(F)cc1	58		
CCNC(=S)N/N=C1\C(=O)Nc2ccc([N+](=O)[O-])cc21	0		
CCCCNC(=S)N/N=C1\C(=O)Nc2ccc([N+](=O)[O-])cc21	42		
CCCCNC(=S)N/N=C1\C(=O)Nc2ccc(F)cc21	16		
O=C1Nc2ccc(F)cc2/C1=N/NC(=S)NC1CCCCC1	39		
Cc1ccc(NC(=S)N/N=C2\C(=O)Nc3ccc(F)cc32)cc1	36		
CCNC(=S)N/N=C1\C(=O)Nc2ccc(F)cc21	8		
CC1S/C(=N/N=C2\C(=O)Nc3ccc([N+](=O)[O-])cc32)N(c2ccc([N+](=O)[O-])cc2)C1=O (configuration not stated)	9		
O=C1Nc2ccc([N+](=O)[O-])cc2/C1=N/NC(=S)Nc1ccc([N+](=O)[O-])cc1	2		
CNC(=S)N/N=C1\C(=O)N(CN2CCOCC2)c2ccc(F)cc21	12		
O=C1Nc2ccc([N+](=O)[O-])cc2/C1=N/N=C1/SCC(=O)N1c1ccc(F)cc1	0		
CC1S/C(=N/N=C2\C(=O)Nc3ccc([N+](=O)[O-])cc32)N(C2CCCCC2)C1=O (configuration not stated)	28		
CCCCN1C(=O)CS/C1=N/N=C1\C(=O)Nc2ccc([N+](=O)[O-])cc21	0		
O=C1Nc2ccc([N+](=O)[O-])cc2/C1=N/N=C1/SCC(=O)N1C1CCCCC1	0		
O=C1Nc2ccc([N+](=O)[O-])cc2/C1=N/N=C1/SCC(=O)N1c1ccc(Br)cc1	0		

Compound	inhibition of growth at 6.25 µg/mL [1] [%]	MIC [2] [µg/mL]	IC50 (Vero) [µg/mL]
O=C1/C(=N\NC(=S)Nc2ccccc2)c2cc(F)ccc2N1CN1CCCCC1	45		
CN1C(=O)CS/C1=N/N=C1\C(=O)Nc2ccc([N+](=O)[O-])cc21	0		
O=C1Nc2ccc(F)cc2/C1=N/NC(=S)Nc1ccccc1	61		
CNC(=S)N/N=C1\C(=O)N(CN2CCOCC2)c2ccc([N+](=O)[O-])cc21	96	> 6.25	7.61 (≈ 20.1 µM)
O=C1/C(=N\NC(=S)NC2CCCCC2)c2cc([N+](=O)[O-])ccc2N1CN1CCCCC1	87		
Cc1ccc(NC(=S)N/N=C2\C(=O)N(CN3CCCCC3)c3ccc([N+](=O)[O-])cc32)cc1	88		
O=C1Nc2ccc([N+](=O)[O-])cc2/C1=N/NC(=S)Nc1ccccc1	33		
CC1S/C(=N/N=C2\C(=O)Nc3ccc([N+](=O)[O-])cc32)N(c2ccc(F)cc2)C1=O (configuration not stated)	5		
Cc1ccc(N2C(=O)C(C)S/C2=N/N=C2\C(=O)Nc3ccc([N+](=O)[O-])cc32)cc1 (configuration not stated)	0		
CC1S/C(=N/N=C2\C(=O)Nc3ccc([N+](=O)[O-])cc32)N(c2ccc(Cl)cc2)C1=O (configuration not stated)	0		
O=C1Nc2ccc(F)cc2/C1=N/NC(=S)Nc1ccc([N+](=O)[O-])cc1	31		
C=CCNC(=S)N/N=C1\C(=O)Nc2ccc([N+](=O)[O-])cc21	25		
O=C1/C(=N\NC(=S)Nc2ccc(F)cc2)c2cc(F)ccc2N1CN1CCOCC1	48		
CCCCNC(=S)N/N=C1\C(=O)N(CN2CCOCC2)c2ccc(F)cc21	34		
O=C1/C(=N\NC(=S)NCc2ccccc2)c2cc(F)ccc2N1CN1CCCCC1	3		
O=C1/C(=N\NC(=S)Nc2ccccc2)c2cc(F)ccc2N1CN1CCOCC1	56		
CCNC(=S)N/N=C1\C(=O)N(CN2CCOCC2)c2ccc(F)cc21	1		
CCNC(=S)N/N=C1\C(=O)N(CN2CCCCC2)c2ccc(F)cc21	2		
O=C1Nc2ccc([N+](=O)[O-])cc2/C1=N/NC(=S)Nc1ccc(Cl)cc1	75		
C=CCNC(=S)N/N=C1\C(=O)Nc2ccc(F)cc21	30		
CO[C@H]1/C=C/O[C@@]2(C)Oc3c(C)c(O)c4c(O)c(c(/C=N/N5CCN(C)CC5)c(O)c4c3C2=O)NC(=O)/C(C)=C\C=C\[C@H](C)[C@H](O)[C@@H](C)[C@@H](O)[C@@H](C)[C@H](OC(C)=O)[C@@H]1C [RIFAMPIN]	97	0.125 (≈ 0.152 µM)	> 100
